By Ki is commonly meant the equilibrium dissociation constant of an inhibitor or competing ligand from its target. Usually solubility stands for how much of the substance goes into solution per volume. Low readings indicate little dissolved substance, high ones much dissolved substance.

SMILES strings stand for the structures. Values after ≈ are worked out from the molar mass of the structure shown.

The target of one series is T1, A1-adenosine receptors (Rattus norvegicus, UniProt P25099).
T1 construct: adenosine receptors in rat cerebral cortex membranes was assayed as described; from tissue; b141 says rat striatum
T1 sequence (P25099 1-326): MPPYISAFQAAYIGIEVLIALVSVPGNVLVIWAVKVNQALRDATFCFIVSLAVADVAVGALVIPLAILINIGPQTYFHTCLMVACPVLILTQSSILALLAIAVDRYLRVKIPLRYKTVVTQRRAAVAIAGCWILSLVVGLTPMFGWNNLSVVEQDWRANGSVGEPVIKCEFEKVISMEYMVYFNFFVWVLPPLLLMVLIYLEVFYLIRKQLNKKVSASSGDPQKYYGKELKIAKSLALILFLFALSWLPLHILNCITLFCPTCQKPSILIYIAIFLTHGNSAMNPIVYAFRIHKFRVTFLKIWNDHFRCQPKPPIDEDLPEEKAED
Nature of the series: Competitive binding assay at A1 receptors ([3H]RPIA). On the procedure:
Table 4 also indicates the synthesis method used for each compound therein.
(§1) A1 ligand = [^3 H]RPIA, A2 ligand = [^3 H]CGS21680
(§2) Inhibition of binding by a range of concentrations of an adenosine derivative was assessed in triplicate in at least three separate experiments. At least seven different concentrations spanning three orders of magnitude, adjusted appropriate for the IC50 of each compound were used. IC50 values Ci/mmol) or [^3 H]CGS21680. Inhibition of [^3 H]NECA binding of to A2 -adenosine receptors in rat striatal membranes were measured as described, except that 5 mM theophylline was used to define non-specific binding. N^6 -Cyclopentyladenosine was present at 50 nM to inhibit binding of the ligand at A1 -adenosine receptors. IC50 values were converted to Ki -values as described.

Series [1] in a line: Solubility of analogs in pH 7.2 phosphate buffer. It counts as physicochemical. To be noted: aqueous buffer; pH 7.2 phosphate buffer with DMSO, 2-3 h room temperature, absorbance at 310 nm, mean of 3. How it is done:
The method for determining the solubilities of the xanthines is detailed in the Experimental Section below.
Solubility of Analogs. To 675 uL of pH 7.2 phosphate buffer was added 25 uL of a DMSO solution (approx. 10 mM) of the xanthine to be assayed. This was stirred for one minutes by a vortex mixer then left at room temperature for 2-3 hours. In each case (except where noted) a fine precipitate resulted which was collected by centrifugation at the end of the waiting period. After the dissolution period, a 100 uL aliquot of the supernatant was added to 1.0 mL of methanol and the absorbance measured at 310 nm using an extinction coefficient of 28,180 for calculating the concentration. Each xanthine was assayed 3 times and the concentration represent the averages of these 3 determinations.

The target in another series is rat brain A1-receptors. To be noted: prior work; cited from earlier work.
Another series concerns the target T2, A2-adenosine receptors (Rattus norvegicus, UniProt P30543).
T2 construct: adenosine receptors in rat striatal membranes were measured as described; from tissue; host or cells: rat striatal membranes
As to the kind of experiment: Competitive binding assay at A2 receptors ([3H]CGS21680). The settings on record: [3H]CGS21680, rat striatum; read-out: Ki at central rat receptors, A2. How it is done: The Ki values (in nM) for A1 and A2 binding in rat striatum are presented in Table 4 with the relative selectivities expressed as the ratio of Ki values. […] Table 4 also indicates the synthesis method used for each compound therein.
as §1, §2

T2 sequence (P30543 whole entry): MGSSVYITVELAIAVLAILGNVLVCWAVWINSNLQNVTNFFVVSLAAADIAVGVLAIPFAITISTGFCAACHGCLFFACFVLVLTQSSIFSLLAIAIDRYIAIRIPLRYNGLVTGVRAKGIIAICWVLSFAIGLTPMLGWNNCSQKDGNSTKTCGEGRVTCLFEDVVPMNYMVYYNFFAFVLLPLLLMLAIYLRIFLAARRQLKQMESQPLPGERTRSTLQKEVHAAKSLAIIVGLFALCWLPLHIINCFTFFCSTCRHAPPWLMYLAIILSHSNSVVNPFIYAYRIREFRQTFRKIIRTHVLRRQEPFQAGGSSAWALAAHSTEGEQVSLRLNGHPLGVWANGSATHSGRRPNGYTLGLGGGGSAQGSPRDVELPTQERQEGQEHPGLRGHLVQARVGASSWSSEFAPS

As for `CCCn1c(=O)c2[nH]c(-c3ccc(OCC(=O)NCCNC(=S)Nc4cccc(N=C=S)c4)cc3)nc2n(CCC)c1=O` [Compound 7], the Ki at A1-adenosine receptors ([3H]RPIA, rat brain membranes, read-out: Ki at central rat receptors, A1) was 2.39 ± 0.35 nM; at rat brain A1-receptors, 2.4 nM; on A2-adenosine receptors, 343 nM. The A2/A1 ratio on A1-adenosine receptors (ratio of Ki values A2/A1) was found to be 144. Besides, the solubility in series [1] came to 90.1 ± 0.56 µM (≈ 55.9 µg/mL).

For `CCCn1c(=O)c2[nH]c(-c3ccc(OCC(=O)NCCN)cc3)nc2n(CCC)c1=O` [XAC, 8-[4-[[[[(2-aminoethyl)-amino]carbonyl]methyl]oxy]phenyl]-1,3-dipropylxanthine], the inhibitory constant (Ki) at rat brain A1-receptors was 1.2 nM.

On to `CCCn1c(=O)c2[nH]c(-c3ccc(OCC(=O)NCCNC(=S)Nc4ccc(N=C=S)cc4)cc3)nc2n(CCC)c1=O` [p-DITC-XAC (2b)], for which the Ki at rat brain A1-receptors was 6.6 nM.
